According to patent US20260265238A1, “COMPOUNDS AND PHARMACEUTICAL COMPOSITIONS THAT DEGRADE SWI/SNF-RELATED MATRIX-ASSOCIATED ACTIN-DEPENDENT REGULATOR OF CHROMATIN SUBFAMILY A” (Plexium, Inc., priority 2023, published 2026):

Assays:
[1] = target: T1, SMARCA2-HiBiT HeLa cells (protein which is expressed from the SMARCA2 gene) (Homo sapiens, UniProt P51531); test: SMARCA2 degradation assay (HiBiT-fusion HeLa cell line, 24 h, luminescence); assay type: cell-based
T1 construct: protein which is expressed from the SMARCA2 and SMARCA4 genes; host or cells: HeLa (SMARCA2-HiBiT engineered line)
Method in brief: (§1)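 In this 24-hour cellular degradation readout, HiBiT-tagged HeLa lines received compound at up to typically 10 μM down to 300 pM in 10 points. After lysis with LgBiT and substrate, luminescence signals were used to build dose-response curves for DC50.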

[2] = target: T2, SMARCA4-HiBiT HeLa cells (protein which is expressed from the SMARCA4 gene) (Homo sapiens, UniProt P51532); test: SMARCA4 degradation assay (HiBiT-fusion HeLa cell line, 24 h, luminescence); assay type: cell-based
T2 construct: protein which is expressed from the SMARCA2 and SMARCA4 genes; host or cells: HeLa (SMARCA4-HiBiT engineered line)
Method in brief: as §1

T2 sequence (P51532 whole entry, the tested form may be a part): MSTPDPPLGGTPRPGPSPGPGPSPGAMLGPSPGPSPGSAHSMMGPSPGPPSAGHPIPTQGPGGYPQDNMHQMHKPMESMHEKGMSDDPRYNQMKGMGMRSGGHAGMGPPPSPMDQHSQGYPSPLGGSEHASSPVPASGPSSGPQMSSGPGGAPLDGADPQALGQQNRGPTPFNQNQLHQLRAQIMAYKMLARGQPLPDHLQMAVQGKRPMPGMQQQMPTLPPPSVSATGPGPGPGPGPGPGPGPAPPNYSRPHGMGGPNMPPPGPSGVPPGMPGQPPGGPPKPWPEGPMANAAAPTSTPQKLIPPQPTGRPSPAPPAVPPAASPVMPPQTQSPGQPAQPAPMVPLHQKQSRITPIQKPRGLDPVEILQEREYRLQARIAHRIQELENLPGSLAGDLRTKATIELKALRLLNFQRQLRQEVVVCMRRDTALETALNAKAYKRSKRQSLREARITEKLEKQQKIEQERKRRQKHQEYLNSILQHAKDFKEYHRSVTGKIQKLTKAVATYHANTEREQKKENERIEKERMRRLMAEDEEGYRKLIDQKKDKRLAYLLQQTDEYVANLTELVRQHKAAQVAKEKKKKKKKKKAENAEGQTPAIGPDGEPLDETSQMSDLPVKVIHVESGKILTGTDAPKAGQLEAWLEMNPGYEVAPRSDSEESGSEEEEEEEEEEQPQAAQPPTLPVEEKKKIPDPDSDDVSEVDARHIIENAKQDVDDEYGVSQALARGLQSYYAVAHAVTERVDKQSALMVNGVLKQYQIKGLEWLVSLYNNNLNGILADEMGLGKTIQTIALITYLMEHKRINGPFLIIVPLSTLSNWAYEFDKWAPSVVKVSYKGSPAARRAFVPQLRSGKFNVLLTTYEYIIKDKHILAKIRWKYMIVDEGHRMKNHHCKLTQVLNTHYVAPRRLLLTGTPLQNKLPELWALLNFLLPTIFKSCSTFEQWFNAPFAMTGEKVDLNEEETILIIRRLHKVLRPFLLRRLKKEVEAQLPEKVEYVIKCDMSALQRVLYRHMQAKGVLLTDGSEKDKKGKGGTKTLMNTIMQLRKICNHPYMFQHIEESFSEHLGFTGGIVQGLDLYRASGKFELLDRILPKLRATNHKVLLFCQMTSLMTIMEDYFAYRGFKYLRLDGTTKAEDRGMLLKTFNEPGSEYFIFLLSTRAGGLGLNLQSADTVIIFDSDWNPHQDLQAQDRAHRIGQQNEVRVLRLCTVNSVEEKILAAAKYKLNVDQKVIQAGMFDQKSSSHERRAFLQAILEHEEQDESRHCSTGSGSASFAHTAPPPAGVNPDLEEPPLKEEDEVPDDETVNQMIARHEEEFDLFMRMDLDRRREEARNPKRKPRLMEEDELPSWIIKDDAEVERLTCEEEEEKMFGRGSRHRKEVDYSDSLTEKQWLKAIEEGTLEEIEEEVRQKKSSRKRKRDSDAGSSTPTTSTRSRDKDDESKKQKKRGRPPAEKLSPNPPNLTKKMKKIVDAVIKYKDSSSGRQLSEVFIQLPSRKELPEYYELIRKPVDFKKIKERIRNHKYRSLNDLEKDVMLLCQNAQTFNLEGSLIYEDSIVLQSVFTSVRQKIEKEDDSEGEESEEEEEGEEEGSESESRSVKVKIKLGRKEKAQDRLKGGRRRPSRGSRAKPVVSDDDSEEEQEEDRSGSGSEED
T1 sequence (P51531 whole entry, the tested form may be a part): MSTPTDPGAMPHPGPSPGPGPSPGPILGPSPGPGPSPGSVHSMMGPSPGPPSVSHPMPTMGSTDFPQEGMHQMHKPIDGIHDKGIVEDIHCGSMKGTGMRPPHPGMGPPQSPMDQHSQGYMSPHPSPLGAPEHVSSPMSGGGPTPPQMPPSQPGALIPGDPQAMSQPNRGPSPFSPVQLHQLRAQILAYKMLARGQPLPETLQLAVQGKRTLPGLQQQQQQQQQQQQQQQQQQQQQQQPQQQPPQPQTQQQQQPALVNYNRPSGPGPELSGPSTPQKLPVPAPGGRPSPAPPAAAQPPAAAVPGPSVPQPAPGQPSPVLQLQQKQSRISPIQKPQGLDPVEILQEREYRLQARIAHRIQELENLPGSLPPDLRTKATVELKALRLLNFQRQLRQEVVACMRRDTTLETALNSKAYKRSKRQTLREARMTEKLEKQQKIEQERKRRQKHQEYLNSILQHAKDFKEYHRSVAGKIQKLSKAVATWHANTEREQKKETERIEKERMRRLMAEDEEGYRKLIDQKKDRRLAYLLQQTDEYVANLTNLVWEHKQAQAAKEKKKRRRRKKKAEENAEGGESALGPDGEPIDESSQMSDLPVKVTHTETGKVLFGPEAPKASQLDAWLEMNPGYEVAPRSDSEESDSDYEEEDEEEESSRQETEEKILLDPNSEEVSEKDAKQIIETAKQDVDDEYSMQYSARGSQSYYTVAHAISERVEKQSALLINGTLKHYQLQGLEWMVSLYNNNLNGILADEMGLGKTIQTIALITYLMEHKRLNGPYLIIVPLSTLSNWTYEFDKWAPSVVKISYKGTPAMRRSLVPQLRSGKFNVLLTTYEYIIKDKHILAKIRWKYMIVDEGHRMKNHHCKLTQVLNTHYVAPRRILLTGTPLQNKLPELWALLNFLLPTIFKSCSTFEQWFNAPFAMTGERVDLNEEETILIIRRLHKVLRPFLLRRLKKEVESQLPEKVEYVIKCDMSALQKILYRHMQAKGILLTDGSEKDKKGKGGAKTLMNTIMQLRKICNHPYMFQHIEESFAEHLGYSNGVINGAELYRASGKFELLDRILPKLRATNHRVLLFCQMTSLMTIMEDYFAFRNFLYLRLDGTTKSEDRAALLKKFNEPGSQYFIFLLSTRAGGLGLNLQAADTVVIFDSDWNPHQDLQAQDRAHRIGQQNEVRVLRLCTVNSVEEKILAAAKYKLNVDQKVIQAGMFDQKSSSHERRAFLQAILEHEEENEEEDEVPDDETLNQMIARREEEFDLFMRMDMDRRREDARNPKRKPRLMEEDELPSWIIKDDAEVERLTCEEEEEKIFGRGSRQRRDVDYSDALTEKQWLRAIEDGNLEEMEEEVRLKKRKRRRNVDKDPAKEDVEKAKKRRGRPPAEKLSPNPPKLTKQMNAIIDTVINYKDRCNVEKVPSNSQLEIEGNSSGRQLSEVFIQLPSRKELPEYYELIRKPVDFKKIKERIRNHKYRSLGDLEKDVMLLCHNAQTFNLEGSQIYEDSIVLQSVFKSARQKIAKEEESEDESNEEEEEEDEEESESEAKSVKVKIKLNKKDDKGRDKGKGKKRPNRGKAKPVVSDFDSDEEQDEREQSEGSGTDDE

Structure (SMILES)	DC50 [1] [nM]	SMARCA2 % Degradation @ 1 μM ([1]; @ 1 μM)	DC50 [2] [nM]	inhibition at 1 µM ([2]; @ 1 μM) [%]	SMARCA2 % Degradation @ 1 μM ([1]; 1 μM)	inhibition at 1 µM ([2]; 1 μM) [%]
C[C@H]1CCN(c2cc(-c3ccccc3O)nnc2N)CCN1c1ccnc(C#CCN(C)CC(F)(F)F)n1 [Compound P-217, o-{5-[(S)-4-(2-{3-[N-methyl(2,2,2-trifluoroethyl)amino]-1-propynyl}-4-pyrimidinyl)-5-methyl-1,4-diazepan-1-yl]-6-amino-3-pyridaziny1}phenol]	50 to 500	++ (++=30-70%)	50 to 500	< 30	–	–
CC(C)(C)OC(=O)N1CCC(F)(C#Cc2nccc(N3CCCN(c4cc(-c5ccccc5O)nnc4N)CC3)n2)CC1 [Compound P-349]	50 to 500	++ (++=30-70%)	50 to 500	30 to 70	–	–
C[C@@H]1COC[C@H](C)N1CC#Cc1nccc(N2CCCN(c3cc(-c4ccccc4O)nnc3N)CC2)n1 [Compound P-318, 0-{5-[4-(2-{3-[(3R,5S)-3,5-dimethyl-4-morpholinyl]-1-propynyl}-4-pyrimidinyl)-1,4-diazepan-1-yl]-6-amino-3-pyridazinyl}phenol]	50 to 500	++ (++=30-70%)	50 to 500	30 to 70	–	–
C[C@H]1CCN1CC#Cc1nccc(N2CCCN(c3cc(-c4ccccc4O)nnc3N)CC2)n1 [Compound P-279, 0-{5-[4-(2-{3-[(S)-2-methyl-1-azetidinyl]-1-propynyl}-4-pyrimidinyl)-1,4-diazepan-1-y1]-6-amino-3-pyridazinyl}phenol]	50 to 500	+++ (+++=>70%)	50 to 500	30 to 70	–	–
COCC#Cc1cc(N2CCN(c3cc(-c4ccccc4O)nnc3N)CC[C@H]2C)ccn1 [Compound P-398, 0-(5-{(R)-4-[2-(3-methoxy-1-propynyl)-4-pyridyl]-5-methyl-1,4-diazepan-1-yl}-6-amino-3-pyridazinyl)phenol]	50 to 500	–	500 to 5000	–	++ (++=30-70%)	30 to 70
C[C@@H]1CCN(c2cc(-c3ccccc3O)nnc2N)CCN1c1ccnc(C#C[C@@H](O)C2CC2)n1 [Compound P-265, o-{5-[(R)-4-{2-[(S)-3-cyclopropyl-3-hydroxy-1-propynyl]-4-pyrimidinyl}-5-methyl-1,4-diazepan-1-yl]-6-amino-3-pyridaziny1} phenol]	50 to 500	+++ (+++=>70%)	50 to 500	> 70	–	–
Nc1nnc(-c2ccccc2O)cc1N1CCCN(c2ccnc(C#CCN3CC(F)(F)C3)n2)CC1 [Compound P-312, 0-[6-amino-5-(4-{2-[3-(3,3-difluoro-1-azetidinyl)-1-propynyl]-4-pyrimidinyl}-1,4-diazepan-1-yl)-3-pyridazinyl]phenol]	50 to 500	+++ (+++=>70%)	50 to 500	30 to 70	–	–
C[C@@H]1CCN(c2cc(-c3ccccc3O)nnc2N)CCN1c1ccnc(C#CCN2CC3CCC(C2)O3)n1 [Compound P-183, o-{5-[(R)-5-methyl-4-(2-{3-(8-oxa-3-azabicyclo[3.2.1]oct-3-yl)-1-propynyl}-4-pyrimidinyl)-1,4-diazepan-1-yl]-6-amino-3-pyridazinyl}phenol]	50 to 500	+++ (+++=>70%)	50 to 500	30 to 70	–	–
CC(C#Cc1nccc(N2C3CCC2CN(c2cc(-c4ccccc4O)nnc2N)C3)n1)NC(=O)c1cc2ncccn2n1 (centres unmarked) [Compound P-97, N-(4-(4-(3-(3-amino-6-(2-hydroxyphenyl)pyridazin-4-yl)-3,8-diazabicyclo[3.2.1]octan-8-yl)pyrimidin-2-yl)but-3-yn-2-yl)pyrazolo|1,5-a|pyrimidine-2-carboxamide]	50 to 500	++ (++=30-70%)	50 to 500	30 to 70	–	–
CCC1CN(CC#Cc2nccc(N3CCCN(c4cc(-c5ccccc5O)nnc4N)CC3)n2)c2ccccc2O1 (centres unmarked) [Compound P-360, 0-[6-amino-5-(4-{2-[3-(2-ethyl-3,4-dihydro-2H-1,4-benzoxazin-4-yl)-1-propynyl]-4-pyrimidinyl}-1,4-diazepan-1-yl)-3-pyridazinyl]phenol]	50 to 500	++ (++=30-70%)	50 to 500	30 to 70	–	–
CN(C)CC#Cc1nccc(N2CCCC(c3cc(-c4ccccc4O)nnc3N)CC2)n1 (centres unmarked) [Compound P-172, o-[6-amino-5-(1-{2-[3-(dimethylamino)-1-propynyl]-4-pyrimidinyl}-4-azepanyl)-3-pyridazinyl]phenol]	< 50	++ (++=30-70%)	< 50	30 to 70	–	–
C[C@@H]1CCN(c2cc(-c3ccccc3O)nnc2N)CCN1c1ccnc(C#CCN2CC3CC2(C)C3)n1 [Compound P-190, o-{5-[(R)-5-methyl-4-(2-{3-(1-methyl-2-azabicyclo[2.1.1]hex-2-yl)-1-propynyl}-4-pyrimidinyl)-1,4-diazepan-1-yl]-6-amino-3-pyridazinyl}phenol]	50 to 500	+++ (+++=>70%)	50 to 500	30 to 70	–	–
C[C@@H]1CCN1CC#Cc1nccc(N2CCCN(c3cc(-c4ccccc4O)nnc3N)CC2)n1 [Compound P-299, 0-{5-[4-(2-{3-[(R)-2-methyl-1-azetidinyl]-1-propynyl}-4-pyrimidinyl)-1,4-diazepan-1-y1]-6-amino-3-pyridaziny1} phenol]	50 to 500	+++ (+++=>70%)	50 to 500	30 to 70	–	–
C[C@@H]1CCN(c2cc(-c3ccccc3O)nnc2N)CCN1c1ccc(C#N)c(C#CCN2CC3CC2C3)n1 [Compound P-393, 6-{(R)-4-[3-amino-6-(o-hydroxyphenyl)-4-pyridazinyl]-7-methyl-1,4-diazepan-1-yl}-2-{3-(2-azabicyclo[2.1.1]hex-2-yl)-1-propynyl} nicotinonitrile]	< 50	–	< 50	–	+++ (+++=>70%)	30 to 70
C[C@@H]1CCN(c2cc(-c3ccccc3O)nnc2N)CCN1c1ccc(C#N)c(C#CCN2CCC(F)(F)CC2)n1 [Compound P-416, 6-{(R)-4-[3-amino-6-(o-hydroxyphenyl)-4-pyridazinyl]-7-methyl-1,4-diazepan-1-yl}-2-[3-(4,4-difluoro-1-piperidyl)-1-propynyl]nicotinonitrile]	50 to 500	–	50 to 500	–	+++ (+++=>70%)	> 70
COCC#Cc1nc(N2CCN(c3cc(-c4ccccc4O)nnc3N)CC[C@H]2C)ccc1C#N [Compound P-400, 6-{(R)-4-[3-amino-6-(o-hydroxyphenyl)-4-pyridazinyl]-7-methyl-1,4-diazepan-1-yl}-2-(3-methoxy-1-propynyl)nicotinonitrile]	500 to 5000	–	> 5000	–	–	–
C[C@@H]1CCN(c2cc(-c3ccccc3O)nnc2N)CCN1c1ccnc(C#CCN2C[C@@H]3C[C@H]2CO3)c1 [Compound P-404, 0-{5-[(R)-4-[2-(3-{(1S,4S)-2-oxa-5-azabicyclo[2.2.1]hept-5-yl}-1-propynyl)-4-pyridyl]-5-methyl-1,4-diazepan-1-yl]-6-amino-3-pyridazinyl}phenol]	50 to 500	–	50 to 500	–	++ (++=30-70%)	30 to 70
Nc1nnc(-c2ccccc2O)cc1N1CCN(c2ccnc(C#CCNC(=O)c3cccc4ccoc34)n2)CC1 [Compound P-63, N-(3-(4-(4-(3-amino-6-(2-hydroxyphenyl)pyridazin-4-yl)piperazin-1-yl)pyrimidin-2-yl)prop-2-yn-1-yl)benzofuran-7-carboxamide]	50 to 500	++ (++=30-70%)	50 to 500	30 to 70	–	–
COC(=O)NCC#Cc1nccc(N2CCCN(c3cc(-c4ccccc4O)nnc3N)CC2)n1 [Compound P-353, 3-(4-{4-[3-amino-6-(o-hydroxyphenyl)-4-pyridaziny1]-1,4-diazepan-1-y1}-2-pyrimidinyl)-2-propynylaminomethylformylate]	50 to 500	+++ (+++=>70%)	50 to 500	> 70	–	–
C[C@@H]1CCN(c2cc(-c3ccccc3O)nnc2N)CCN1c1ccnc(C#CC2CCCO2)n1 (stereo partly drawn) [Compound P-211, o-{5-[(R)-5-methyl-4-{2-[2-(tetrahydro-2-furyl)ethynyl]-4-pyrimidinyl}-1,4-diazepan-1-yl]-6-amino-3-pyridaziny1} phenol]	50 to 500	++ (++=30-70%)	500 to 5000	< 30	–	–
C[C@@H]1CCN(c2cc(-c3ccccc3O)nnc2N)CCN1c1ccnc(C#CC23CCC(C2)N3)n1 (stereo partly drawn) [Compound P-196, o-{5-[(R)-4-(2-{2-(5-azabicyclo[2.1.1]hex-1-yl)ethynyl}-4-pyrimidinyl)-5-methyl-1,4-diazepan-1-yl]-6-amino-3-pyridazinyl}phenol]	500 to 5000	++ (++=30-70%)	500 to 5000	< 30	–	–
C[C@@H]1CCN(c2cc(-c3ccccc3O)nnc2N)CCN1c1ccnc(C#CCn2cccn2)n1 [Compound P-332, 0-{5-[(R)-5-methyl-4-{2-[3-(1-pyrazolyl)-1-propynyl]-4-pyrimidinyl}-1,4-diazepan-1-y1]-6-amino-3-pyridazinyl}phenol]	< 50	++ (++=30-70%)	50 to 500	< 30	–	–
